Data on 26 compounds can be found in patent US9611249B2, “1H-indazole-3-carboxamide compounds as glycogen synthase kinase 3 beta inhibitors” (AZIENDE CHIMICHE RIUNITE ANGELINI FRANCESCO A.C.R.A.F. …, priority 2012, dated 2017).

Structures can show the parent of a compound that is named as a salt.

The IC50 is the concentration that inhibits the measured activity by half. Read a low IC50 as greater potency.

T1 sequence (P49841 whole entry): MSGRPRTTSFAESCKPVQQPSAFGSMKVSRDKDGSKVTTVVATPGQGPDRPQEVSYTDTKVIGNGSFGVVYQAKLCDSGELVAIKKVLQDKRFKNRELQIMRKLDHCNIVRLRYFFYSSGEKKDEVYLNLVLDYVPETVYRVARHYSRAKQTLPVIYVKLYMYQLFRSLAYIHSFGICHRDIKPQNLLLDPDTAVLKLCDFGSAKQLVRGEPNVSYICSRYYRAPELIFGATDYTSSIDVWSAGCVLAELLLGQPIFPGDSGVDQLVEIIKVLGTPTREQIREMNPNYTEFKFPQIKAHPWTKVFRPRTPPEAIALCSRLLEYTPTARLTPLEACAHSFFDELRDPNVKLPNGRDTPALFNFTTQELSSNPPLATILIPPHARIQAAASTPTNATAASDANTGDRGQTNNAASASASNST

The first assay addresses T1, human GSK-3β (Homo sapiens (Human), UniProt P49841). Briefly: Activity on human GSK-3β, LANCE substrate phosphorylation assay. In kind it is biochemical. As to conditions: compounds 1 to 15, LANCE assay, five concentrations 100 μM to 10 nM. On the procedure: Activity on human GSK-3β was assessed using the following methods (according to Meijer et al., Chem. Biol., 2003-10:1255-1266).
In a first screening assay, compounds were tested in duplicate at a concentration of 10 μM.
Human recombinant enzyme GSK-3β was incubated for 90 minutes at 22° C. in the presence of compounds or vehicle in a reaction buffer containing ATP plus 100 nM unphosphorylated specific substrate peptide (Ulight-[…] K-amide). Substrate phosphorylation was measured by LANCE technology (PerkinElmer, Conn., USA).
In a second assay, the same compounds were assayed at five concentrations ranging from 100 μM to 10 nM with ten-fold dilutions in duplicate.
(§1) The IC50 values (concentration causing a half maximal inhibition of control specific activity), reported in table 4, were determined by non-linear regression analysis of the inhibition curves generated with mean replicate values using Hill equation curve fitting.
(In general: In TR-FRET formats the signal depends on donor and acceptor labels being close together.)
On to `COCCN1CCC(CNC(=O)c2n[nH]c3ccc(-c4cccnc4)cc23)CC1` [Compound 4, N-{[1-(2-methoxyethyl)piperidin-4-yl]methyl}-5-(pyridin-3-yl)-1H-indazole-3-carboxamide], for which the IC50 is 30 nM.

With `COCCN1CCC(CNC(=O)c2n[nH]c3ccc(-c4cnccc4OC)cc23)CC1` [Compound 5, N-{[1-(2-methoxyethyl)piperidin-4-yl]methyl}-5-(4-methoxypyridin-3-yl)-1H-indazole-3-carboxamide], inhibition was half-maximal at 50 nM (IC50).

Take `COCCN1CCC(CNC(=O)c2n[nH]c3ccc(-c4ccccc4F)cc23)CC1` [Compound 6, 5-(2-fluorophenyl)-N-{[1-(2-methoxyethyl)piperidin-4-yl]methyl}-1H-indazole-3-carboxamide]: 70 nM corresponded to half-maximal inhibition (IC50).

`COCCN1CCC(CNC(=O)c2n[nH]c3ccc(-c4ccc(C)nc4)cc23)CC1` [Compound 7, N-{[1-(2-methoxyethyl)piperidin-4-yl]methyl}-5-(6-methylpyridin-3-yl)-1H-indazole-3-carboxamide] had an IC50 of 60 nM.

In turn, `COCCN1CCC(CNC(=O)c2n[nH]c3ccc(-c4ccccc4)cc23)CC1` [Compound 9, N-{[1-(2-methoxyethyl)pipendin-4-yl]methyl}-5-phenyl-1H-indazole-3-carboxamide] displayed an IC50 of 200 nM.

`COCCN1CCC(CNC(=O)c2n[nH]c3ccc(-c4cncc(OC)c4)cc23)CC1` [Compound 10, N-{[1-(2-methoxyethyl)piperidin-4-yl]methyl}-5-(5-methoxypyridin-3-yl)-1H-indazole-3-carboxamide] registered an IC50 of 30 nM.

`COCCN1CCC(CNC(=O)c2n[nH]c3ccc(-c4ccc(O)cc4)cc23)CC1` [Compound 11, 5-(4-hydroxyphenyl)-N-{[1-(2-methoxyethyl)piperidin-4-yl]methyl}-1H-indazole-3-carboxamide] registered an IC50 of 890 nM.

Compound `COCCN1CCC(CNC(=O)c2n[nH]c3ccc(-c4ccc(OC)cc4)cc23)CC1` [Compound 12, N-{[1-(2-methoxyethyl)piperidin-4-yl]methyl}-5-(4-methoxyphenyl)-1H-indazole-3-carboxamide] returned an IC50 of 560 nM.

Another assay deals with T1, human GSK-3β. Briefly: GSK-3β LanthaScreen TR-FRET Eu Kinase binding and displacement assay. The note with it: compounds 16 to 41, LanthaScreen TR-FRET binding and displacement assay, five concentrations 100 μM to 10 nM. On the procedure: In a second assay, the same compounds were assayed at five concentrations ranging from 100 μM to 10 nM with ten-fold dilutions in duplicate. Compounds 1 to 15 were tested using the same first assay, compounds 16 to 41 were tested in another assay based on the binding and displacement of AlexaFluor® 647 labeled, ATP-competitive Kinase inhibitor scaffold using LanthaScreen™ TR-FRET technology Eu Kinase assay packet according to manufacturer's instruction (Life Technologies, Italy).
as §1
The compound `COCCN1CCC(CNC(=O)c2n[nH]c3ccc(-c4ccccc4C)cc23)CC1` [Compound 16, N-{[1-(2-methoxyethyl)piperidin-4-yl]methyl}-5-(2-methylphenyl)-1H-indazole-3-carboxamide] came in with a 50% inhibitory concentration (IC50) of 580 nM.

In turn, `CCOc1cc(F)c(F)cc1-c1ccc2[nH]nc(C(=O)NCC3CCN(CCOC)CC3)c2c1` [Compound 18, 5-(2-ethoxy-4,5-difluorophenyl)-N-{[1-(2-methoxyethyl)piperidin-4-yl]methyl}-1H-indazole-3-carboxamide] returned an IC50 of 1060 nM.

`COc1ccc2[nH]nc(C(=O)NCC3CCN(CCCC(=O)O)CC3)c2c1` [Compound 24, 4-[4-({[(5-methoxy-1H-indazol-3-yl)carbonyl]amino}methyl)piperidin-1-yl] butanoic acid] displayed an IC50 of 1030 nM.

`O=C(O)CN1CCC(CNC(=O)c2n[nH]c3ccc(-c4cncnc4)cc23)CC1` [Compound 25, {4-[({[5-(Pyrimidin-5-yl)-1H-indazol-3-yl]carbonyl}amino)methyl]piperidin-1-yl}acetic acid hydrate]: the IC50 stood at 220 nM.

In turn, `O=C(NCC1CCNCC1)c1n[nH]c2ccc(Br)cc12` [Compound 25b, 5-Bromo-N-(piperidin-4-ylmethyl)-1H-indazole-3-carbox-amide hydrochloride] registered an IC50 of 530 nM.

As to `Cc1noc(C)c1-c1ccc2[nH]nc(C(=O)NCC3CCN(CC(=O)O)CC3)c2c1` [Compound 26, {4-[({[5-(3,5-Dimethylisoxazol-4-yl)-1H-indazol-3-yl]carbonyl}amino)methyl]piperidin-1-yl}acetic acid hydrate], the IC50 came out at 910 nM.

Turning to `O=C(O)CN1CCC(CNC(=O)c2n[nH]c3ccc(-c4cccc(Cl)c4Cl)cc23)CC1` [Compound 27, {4-[({[5-(2,3-dichlorophenyl)-1H-indazol-3-yl]carbonyl}amino)methyl]piperidin-1-yl}acetic acid hydrate], the IC50 came to 100 nM.

Compound `O=C(O)CN1CCC(CNC(=O)c2n[nH]c3ccc(-c4cccc(F)c4)cc23)CC1` [Compound 28, {4-[({[5-(3-fluorophenyl)-1H-indazol-3-yl]carbonyl}amino)methyl]piperidin-1-yl} acetic acid hydrate] displayed an IC50 of 110 nM.

`COc1cncc(-c2ccc3[nH]nc(C(=O)NCC4CCN(CC(=O)O)CC4)c3c2)c1` [Compound 30, {4-[({[5-(5-methoxypyridin-3-yl)-1H-indazol-3-yl]carbonyl}amino)methyl]piperidin-1-yl}acetic acid] yielded a half-inhibitory concentration (IC50) of 20 nM.

Turning to `CC(C)c1ccc2[nH]nc(C(=O)NCC3CCN(CC(=O)O)CC3)c2c1` [Compound 32, {4-[({[5-(propan-2-yl)-1H-indazol-3-yl]carbonyl}amino)methyl]piperidin-1-yl} acetic acid], the IC50 came out at 3910 nM.

The compound `O=C(O)CN1CCC(CNC(=O)c2n[nH]c3ccc(C4=CCOCC4)cc23)CC1` [Compound 33, {4-[({[5-(3,6-dihydro-2H-pyran-4-yl)-1H-indazol-3-yl]carbonyl}amino)methyl]piperidin-1-yl}acetic acid] had an IC50 of 1040 nM.

Compound `O=C(O)CN1CCC(CNC(=O)c2n[nH]c3ccc(C4CCCCC4)cc23)CC1` [Compound 34, [4-({[(5-cyclohexyl-1H-indazol-3-yl)carbonyl]amino}methyl)piperidin-1-yl] acetic acid] had an IC50 of 1070 nM.

Compound `CCCCCc1ccc2[nH]nc(C(=O)NCC3CCN(CC(=O)O)CC3)c2c1` [Compound 35, [4-({[(5-pentyl-1H-indazol-3-yl)carbonyl]amino}methyl)piperidin-1-yl] acetic acid] yielded an IC50 of 2040 nM.

`COc1ccc2[nH]nc(C(=O)NCC3CCN(CCCNC(=O)c4ccccc4)CC3)c2c1` [Compound 36, 5-methoxy-N-[(1-{3-[(phenylcarbonyl)amino]propyl}piperidin-4-yl)methyl]-1H-indazole-3-carboxamide] came in with an IC50 of 3420 nM.

Take `CCCC(=O)NCCCN1CCC(CNC(=O)c2n[nH]c3ccc(OC)cc23)CC1` [Compound 37, N-({1-[3-(butanoylamino)propyl]piperidin-4-yl}methyl)-5-methoxy-1H-indazole-3-carboxamide]: the IC50 was found to be 970 nM.

Compound `C/C=C/C(=O)NCCCN1CCC(CNC(=O)c2n[nH]c3ccc(OC)cc23)CC1` [Compound 38, N-[(1-{3-[(2E)-but-2-enoylamino]propyl}piperidin-4-yl)methyl]-5-methoxy-1H-indazole-3-carboxamide] had an IC50 of 780 nM.

Compound `CCC(=O)NCCCN1CCC(CNC(=O)c2n[nH]c3ccc(OC)cc23)CC1` [Compound 39, 5-methoxy-N-({1-[3-(propanoylamino)propyl]piperidin-4-yl}methyl)-1H-indazole-3-carboxamide] came in with an IC50 of 950 nM.

Regarding `CC#CC(=O)NCCCN1CCC(CNC(=O)c2n[nH]c3ccc(OC)cc23)CC1` [Compound 40, N-({1-[3-(but-2-ynoylamino)propyl]piperidin-4-yl}methyl)-5-methoxy-1H-indazole-3-carboxamide], the IC50 came to 880 nM.
